The subject of one data set is MC38 tumor. In words: Tumor growth inhibition in the MC38 syngenic model. The conditions noted are these: MC38 SC model, oral once a day. The data set is classed as in vivo, mouse (female C57BL/6). Here is the method: Female C57BL/6 mice bred in-house were used in this efficacy study in the MC38 model. Animals were 6-8 weeks-old and weighed between 13 and 21 g. Animals were marked individually with tail marks and kept in cages that were identified by a cage card showing the study code, date of experimentation, sex and number of animals. During the experiment, the animals were weighed daily.
Tumor cells were cultured according to the procedure explained in the literature (U.S. Pat. No. 9,333,256; A. Filatenkov et al., J. Immunol., 2009. 183(11): 7196-7203). Tumor cells were ensured Mycoplasma free by performing Mycoplasma detection with MYCOALERT®Mycoplasma Detection Kit (Lonza) in accordance with manufacturer instructions. MYCOALERT® Assay is a selective biochemical test that exploits the activity of mycoplasmal enzymes. Viable Mycoplasma would be lysed and enzymes react with MYCOALERT® substrate, catalyzing the conversion of ADP to ATP. […]
MC38 cells were cultured according to the information in published literature (A. Filatenkov et al., J. Immunol., 2009. 183(11): 7196-7203; S. F. Ngiow et al., Cancer Res., 2011. 71(10): 3540-3551). […] Tumor volumes were measured 3 times a week, body weight and clinical signs were monitored every day. […]

Another data set relates to CT-26 tumor. In words: Tumor growth inhibition in the CT-26 syngeneic mouse tumor model. It is filed as in vivo, mouse (female Balb/c). The settings on record: CT-26 tumor bearing Balb/c mice, vs Vehicle (H2O). The source says: The purpose of this study is to determine the effect of Cmd 1 and Cmd 32 on growth inhibition (efficacy) in CT-26 tumor bearing mice when administered once daily by oral gavage as single agents or in combination. Cmd 1 and Cmd 32 are small molecule immune modulating agents for treatment of cancer.
Female Balb/c Mice from Charles River Laboratories −20-25 grams; 9-10 weeks old; Strain code: 028.
CT-26 cells were expanded in T225 tissue culture treated flasks in RPMI-1640 medium supplemented with 10% FBS ([…]) and cultured at 37° C. (5% CO2) in a humidified cell culture incubator. Cells were passaged every 3-4 days by detachment with 1× Trypsin/EDTA. Cells were re-plated on 5 flasks in complete RPMI1640 medium.
On the day of implantation, the cells were collected from flasks washed with phosphate buffer solution and detached with Trypsin/EDTA and washed once in phosphate buffer solution with no additives. Cells were resuspended in serum free DMEM at a final concentration of 1×10^6 cells/mL and kept on ice until administered to mice. The cells were kept on ice for no more than 1 hour before administration to the mice. […]
Animals were monitored until tumors were palpable and were then measured until tumor volume reached 100-200 mm^3. […] Tumor cells were counted on a MACSQuant Analyzer with propidium iodide (PI) for live/dead discrimination. […]

A short description of data set [1]: Mortality, body weight and clinical signs in the MC38 study. It is filed as in vivo. The conditions noted are these: Cmd 32 10 mg/kg group, one animal, no gross pathology, not reliably attributed to treatment. The method, then:
Mortality/morbidity of animals, body weight loss and clinical symptoms were monitored. During study period all moribund animals were sacrificed and animals losing >20% of their body weight were also sacrificed. Body weights were recorded every day and clinical signs of toxicity were recorded once a day. Survival was recorded every day. A 15-20% loss of the body weight and/or animal death was considered as the criteria for toxicity. Behavioural, nesting and gross observations for clinical signs were made at least once every day during the course of the study.
At the end of the study (30 min after the last dose), animals were examined externally for possible abnormalities, weighed and sacrificed by CO2 asphyxiation.

Data set [2] concerns intratumoral T cell populations. In words: Cell-surface marker assays of intratumoral T cell populations in the CT-26 model. The conditions noted are these: Cmd 32 50 mg/kg, CT-26 tumors. It is filed as in vivo, mouse (female Balb/c). The method, then:
Animals were monitored until tumors were palpable and were then measured until tumor volume reached 100-200 mm^3. They were then randomized into groups using LabCat software and dosing started the following day. Blood was collected in EDTA tubes and kept on ice. Tumor were collected in 15 mL tubes with RPMI-1640 w/10% FBS on ice. Tumors proceeded to the Miltenyi Biotec mouse tumor dissociation kit. Tumor cells were counted on a MACSQuant Analyzer with propidium iodide (PI) for live/dead discrimination. Percent tumor growth inhibition on Day 20 is tabulated below (Table 11). Tumor volume of individual animals on day 20 and the tumor growth over the course of the study are represented in FIG. 1A and FIG. 1B respectively. Cell-surface marker assays were used to identify intratumoral T cell populations and calculate CD8+ (CTL; cytotoxic T-cell): Treg (regulatory T cell) ratio.

As to `CC(O)[C@H](NC(=O)N[C@@H](CC(N)=O)c1nc([C@@H](N)CO)no1)C(=O)O` (stereo in doubt) [Cmd 1], the “Percent tumor growth inhibition (TGI)” value with MC38 tumor (Cmd 1 10 mg/kg, Cmd 32 0 mg/kg) was 25%. Moreover, in the data set on CT-26 tumor (Cmd 1 100 mg/kg QD PO), the “% TGI (Day 20), percent tumor growth inhibition” value is given as 23%.
Turning to `CC(O)[C@H](NC(=O)N[C@@H](CCC(=O)O)c1nc([C@@H](N)CO)no1)C(=O)O` (stereo in doubt) [Cmd 32], the Mortality result in data set [1] is on record as “found dead”. Further, in the data set with MC38 tumor (Cmd 32 10 mg/kg, Cmd 1 0 mg/kg), the “Percent tumor growth inhibition (TGI)” value worked out at 10%. Moreover, the “% TGI (Day 20), percent tumor growth inhibition” value in the data set on CT-26 tumor (Cmd 32 50 mg/kg QD PO) was 24%. For the same compound, in data set [2] (FIG. 2B), the “Tumor granzyme-B+/PD-1+/Tim-3+ T cells (percent of CD8)” value is on record as “increase”. Besides, the “Tumor granzyme-B+/PD-1+/Tim-3- T cells (percent of CD8)” value in data set [2] (FIG. 2C) was “concomitant decrease”.

Values taken from patent US12064418B2, “Conjoint therapies for immunomodulation” (Aurigene Oncology Limited, priority 2017, dated 2024).
